Test results taken from US20180194762A1 (Pharmacyclics LLC, priority 2017, published 2018).
Like-named read-outs stand apart in the source and are kept apart here.

Key:
Assay type in all cases: biochemical
Btk = molecular target: T1, Btk (Homo sapiens, UniProt Q06187); assay: Btk in vitro inhibitory activity (one of Method A TR-FRET, Method B electrophoretic mobility shift, Method C radiometric filter binding)
T1 construct: purified from insect cells as a full-length construct containing a N-terminal 6X-His tag; His6 (N); made in house; host or cells: insect cells (Method C)
Procedure, shortened: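 Three alternative formats were used. A radiometric filter-binding read used 8 nM full-length His-BTK with 0.2 mg/mL poly(Glu-Tyr) 4:1 (C); microfluidic separation of 1 μM FAM-peptide by 1 nM BTK gave IC50 from 12-point curves (B); TR-FRET at Km ATP, 0.5 nM Btk, gave Ki(app)-derived IC50 (A).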

TEC = molecular target: T2, TEC (Homo sapiens, UniProt P42680); assay: Inhibition of a panel of kinases (in vitro HotSpot kinase assay, 33P-ATP, 1 μM ATP); settings: for IC50: HotSpot kinase assay, 1 μM ATP; for TEC/Btk: ratio of TEC IC50 to Btk IC50 (selectivity)
T2 sequence (P42680 1-631): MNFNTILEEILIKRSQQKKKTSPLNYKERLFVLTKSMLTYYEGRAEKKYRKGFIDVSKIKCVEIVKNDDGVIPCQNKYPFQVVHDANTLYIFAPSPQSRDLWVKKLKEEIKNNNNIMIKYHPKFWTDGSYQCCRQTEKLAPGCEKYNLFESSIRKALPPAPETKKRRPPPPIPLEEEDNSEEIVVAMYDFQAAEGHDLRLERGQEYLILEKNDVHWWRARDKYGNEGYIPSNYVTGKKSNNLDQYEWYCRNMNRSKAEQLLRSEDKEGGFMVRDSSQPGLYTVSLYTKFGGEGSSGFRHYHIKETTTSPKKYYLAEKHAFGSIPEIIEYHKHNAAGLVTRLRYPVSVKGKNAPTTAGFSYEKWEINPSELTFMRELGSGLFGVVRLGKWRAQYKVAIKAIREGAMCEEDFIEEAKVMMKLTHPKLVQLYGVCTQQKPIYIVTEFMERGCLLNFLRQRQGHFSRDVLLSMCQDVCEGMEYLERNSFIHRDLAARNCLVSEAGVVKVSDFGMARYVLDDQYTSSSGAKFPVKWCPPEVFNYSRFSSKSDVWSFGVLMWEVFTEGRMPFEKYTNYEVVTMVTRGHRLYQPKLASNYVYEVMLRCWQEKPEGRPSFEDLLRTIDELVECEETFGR
Procedure, shortened: (§1)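 Radiometric read-out: 33P transfer to a suitable substrate by each purified enzyme, ATP at 1 μM. Values are degree of inhibition.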

panel of kinases = molecular target: T3, panel of kinases (Homo sapiens, UniProt P51813); assay: Inhibition of a panel of kinases (in vitro HotSpot kinase assay, 33P-ATP, 1 μM ATP), other kinases; settings: BMX wild-type, read-out: BMX-WT IC50
T3 sequence (P51813 1-675): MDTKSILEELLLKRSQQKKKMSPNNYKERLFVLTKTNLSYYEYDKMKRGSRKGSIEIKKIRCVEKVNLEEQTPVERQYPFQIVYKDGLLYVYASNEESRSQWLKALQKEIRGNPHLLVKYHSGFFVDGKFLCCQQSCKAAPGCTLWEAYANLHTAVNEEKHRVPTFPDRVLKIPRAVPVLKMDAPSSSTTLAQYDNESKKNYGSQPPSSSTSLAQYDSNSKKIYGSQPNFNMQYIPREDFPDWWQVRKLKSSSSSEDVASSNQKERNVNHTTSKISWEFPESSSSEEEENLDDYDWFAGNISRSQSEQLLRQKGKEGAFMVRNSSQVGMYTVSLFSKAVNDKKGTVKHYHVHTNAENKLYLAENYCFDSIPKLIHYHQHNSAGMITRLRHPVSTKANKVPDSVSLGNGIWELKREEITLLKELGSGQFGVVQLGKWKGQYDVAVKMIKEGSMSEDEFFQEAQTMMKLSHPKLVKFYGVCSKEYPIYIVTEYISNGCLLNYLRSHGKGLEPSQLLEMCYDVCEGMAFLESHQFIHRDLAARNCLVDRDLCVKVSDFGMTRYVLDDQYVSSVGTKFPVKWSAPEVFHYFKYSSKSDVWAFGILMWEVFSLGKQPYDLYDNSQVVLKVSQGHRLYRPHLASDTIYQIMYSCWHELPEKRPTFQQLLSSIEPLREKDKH
Procedure, shortened: as §1

[1] = wild-type Btk, read-out: Btk-WT IC50
[2] = method is one of A, B or C, not stated which, read-out: IC50 values against Btk

T1 sequence (Q06187 whole entry): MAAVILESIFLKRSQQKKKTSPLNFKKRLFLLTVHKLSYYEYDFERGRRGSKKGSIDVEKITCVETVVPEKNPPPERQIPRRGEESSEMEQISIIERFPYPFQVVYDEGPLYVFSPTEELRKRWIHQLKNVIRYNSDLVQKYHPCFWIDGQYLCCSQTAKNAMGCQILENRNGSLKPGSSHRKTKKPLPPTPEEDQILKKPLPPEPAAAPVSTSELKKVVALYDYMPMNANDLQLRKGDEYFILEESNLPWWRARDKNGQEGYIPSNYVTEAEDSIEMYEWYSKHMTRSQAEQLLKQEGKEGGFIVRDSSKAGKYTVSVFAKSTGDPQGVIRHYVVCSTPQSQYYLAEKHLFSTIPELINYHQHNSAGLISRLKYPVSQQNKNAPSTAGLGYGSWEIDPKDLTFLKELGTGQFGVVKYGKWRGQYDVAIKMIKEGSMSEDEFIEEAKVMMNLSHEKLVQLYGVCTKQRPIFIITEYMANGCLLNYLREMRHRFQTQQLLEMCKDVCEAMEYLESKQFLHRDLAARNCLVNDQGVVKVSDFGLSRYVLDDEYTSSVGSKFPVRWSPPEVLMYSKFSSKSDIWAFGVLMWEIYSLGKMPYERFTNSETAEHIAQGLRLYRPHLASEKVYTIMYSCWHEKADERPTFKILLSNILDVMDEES

With C=CC(=O)N1CC(Nc2n[nH]c3nccc(-c4ccc(CNC(=O)c5noc(C(C)(C)C)n5)c(F)c4)c23)C1 [Example 107, 5-tert-butyl-N-{[2-fluoro-4-(3-{[1-(prop-2-enoyl)azetidin-3-yl]amino}-1H-pyrazolo[3,4-b]pyridin-4-yl)phenyl]methyl}-1,2,4-oxadiazole-3-carboxamide] the IC50 (Btk; [1]) was 528 nM, the IC50 (TEC) was greater than 10000 nM and the TEC/Btk (TEC) was greater than 100. It also gave an IC50 (panel of kinases) greater than 10000 nM.
In the case of CC(C)(C)c1nc(C(=O)NCc2ccc(-c3ccnc4[nH]nc(N5CC[C@@H](N)C5)c34)cc2F)no1 [Example 108, N-[(4-{3-[(3R)-3-aminopyrrolidin-1-yl]-1H-pyrazolo[3,4-b]pyridin-4-yl}-2-fluorophenyl)methyl]-5-tert-butyl-1,2,4-oxadiazole-3-carboxamide], the IC50 (Btk; [2]) is reported as less than 10 nM, the IC50 (Btk; [1]) is reported as 1.77 nM and the IC50 (TEC) is reported as 1650 nM. It also gave an IC50 (panel of kinases) of 1730 nM.
Molecule CC(C)(C)c1nc(C(=O)NCc2ccc(-c3ccnc4[nH]nc(NC5CCNCC5)c34)cc2F)no1 [Example 109, 5-tert-butyl-N-[(2-fluoro-4-{3-[(piperidin-4-yl)amino]-1H-pyrazolo[3,4-b]pyridin-4-yl}phenyl)methyl]-1,2,4-oxadiazole-3-carboxamide] has an IC50 (Btk; [1]) of 30.1 nM, an IC50 (TEC) of 8400 nM and an IC50 (panel of kinases) of 4180 nM.
With CC#CC(=O)N1CC[C@@H](Nc2n[nH]c3nccc(-c4ccc(CNC(=O)c5ccc(C(F)(F)F)cc5)c(F)c4)c23)C1 [Example 110, N-{[4-(3-{[(3R)-1-(but-2-ynoyl)pyrrolidin-3-yl]amino}-1H-pyrazolo[3,4-b]pyridin-4-yl)-2-fluorophenyl]methyl}-4-(trifluoromethyl)benzamide] the IC50 (Btk; [2]) was less than 10 nM, the IC50 (Btk; [1]) was 1.89 nM and the IC50 (TEC) was 167 nM. It also gave a TEC/Btk (TEC) of 88 and an IC50 (panel of kinases) of 66 nM.
CC#CC(=O)N1CC[C@@H](Nc2n[nH]c3nccc(-c4ccc(CNC(=O)c5cc(C(C)(C)C)on5)c(F)c4)c23)C1 [Example 111, N-{[4-(3-{[(3R)-1-(but-2-ynoyl)pyrrolidin-3-yl]amino}-1H-pyrazolo[3,4-b]pyridin-4-yl)-2-fluorophenyl]methyl}-5-tert-butyl-1,2-oxazole-3-carboxamide] gave an IC50 (Btk; [2]) of less than 10 nM, an IC50 (Btk; [1]) of 0.18 nM and an IC50 (TEC) of 107 nM. For the same molecule, the TEC/Btk (TEC) was 594 and the IC50 (panel of kinases) was 92 nM.
CC#CC(=O)N1CC[C@@H](Nc2n[nH]c3nccc(-c4ccc(CNC(=O)c5ccc(OC)cc5)c(F)c4)c23)C1 [Example 112, N-{[4-(3-{[(3R)-1-(but-2-ynoyl)pyrrolidin-3-yl]amino}-1H-pyrazolo[3,4-b]pyridin-4-yl)-2-fluorophenyl]methyl}-4-methoxybenzamide] showed an IC50 (Btk; [2]) of less than 10 nM, an IC50 (Btk; [1]) of 4.07 nM and an IC50 (TEC) of 100 nM. The TEC/Btk (TEC) was 24 and the IC50 (panel of kinases) was 48 nM.
In the case of CN(C)C(=O)N1CC[C@H](Nc2n[nH]c3nccc(-c4ccc(CNC(=O)c5noc(C(C)(C)C)n5)c(F)c4)c23)C1 [Example 113, 5-tert-butyl-N-{[4-(3-{[(3S)-1-(dimethylcarbamoyl)pyrrolidin-3-yl]amino}-1H-pyrazolo[3,4-b]pyridin-4-yl)-2-fluorophenyl]methyl}-1,2,4-oxadiazole-3-carboxamide], the IC50 (Btk; [1]) is reported as 10.4 nM, the IC50 (TEC) is reported as 1710 nM and the TEC/Btk (TEC) is reported as 164. It also gave an IC50 (panel of kinases) of 280 nM.
CN(C)C(=O)N1CC[C@H](Nc2n[nH]c3nccc(-c4ccc(CNC(=O)c5ccc(C(C)(C)C)cc5)c(F)c4)c23)C1 [Example 114, (3S)-3-{[4-(4-{[(4-tert-butylphenyl)formamido]methyl}-3-fluorophenyl)-1H-pyrazolo[3,4-b]pyridin-3-yl]amino}-N,N-dimethylpyrrolidine-1-carboxamide] was tested, and the IC50 (Btk; [1]) was 93.3 nM, the IC50 (TEC) was 4100 nM and the TEC/Btk (TEC) was 44. For the same molecule, the IC50 (panel of kinases) was 2110 nM.
CN(C)C(=O)N1CC[C@@H](Nc2n[nH]c3nccc(-c4ccc(CNC(=O)c5cc(C(C)(C)C)on5)c(F)c4)c23)C1 [Example 115, 5-tert-butyl-N-{[4-(3-{[(3R)-1-(dimethylcarbamoyl)pyrrolidin-3-yl]amino}-1H-pyrazolo[3,4-b]pyridin-4-yl)-2-fluorophenyl]methyl}-1,2-oxazole-3-carboxamide] was tested, and the IC50 (Btk; [1]) was 25.7 nM, the IC50 (TEC) was 6320 nM and the TEC/Btk (TEC) was 246. For the same molecule, the IC50 (panel of kinases) was 6450 nM.
Work on CN(C)C(=O)N1CCC[C@@H](Nc2n[nH]c3nccc(-c4ccc(CNC(=O)c5noc(C(C)(C)C)n5)c(F)c4)c23)C1 [Example 116, (3R)-3-{[4-(4-{[(5-tert-butyl-1,2,4-oxadiazol-3-yl) formamido]methyl}-3-fluorophenyl)-1H-pyrazolo[3,4-b]pyridin-3-yl]amino}-N,N-dimethylpiperidine-1-carboxamide] yielded an IC50 (Btk; [1]) of 11 nM, an IC50 (TEC) of 4470 nM and a TEC/Btk (TEC) of 406. For the same molecule, the IC50 (panel of kinases) was 3790 nM.
With CN(C)C(=O)N1CC[C@@H](Nc2n[nH]c3nccc(-c4ccc(C5(NC(=O)c6nc(C(C)(C)C)no6)CC5)cc4)c23)C1 [Example 117, 3-tert-butyl-N-{1-[4-(3-{[(3R)-1-(dimethylcarbamoyl)pyrrolidin-3-yl]amino}-1H-pyrazolo[3,4-b]pyridin-4-yl)phenyl]cyclopropyl}-1,2,4-oxadiazole-5-carboxamide] the IC50 (Btk; [1]) was 46.2 nM, the IC50 (TEC) was greater than 10000 nM and the TEC/Btk (TEC) was greater than 100. For the same molecule, the IC50 (panel of kinases) was 5960 nM.
With CN(C)C(=O)N1CC[C@@H](Nc2n[nH]c3nccc(-c4ccc(CNC(=O)c5cnn(C(C)(C)C)c5)c(F)c4)c23)C1 [Example 119, 1-tert-butyl-N-{[4-(3-{[(3R)-1-(dimethylcarbamoyl)pyrrolidin-3-yl]amino}-1H-pyrazolo[3,4-b]pyridin-4-yl)-2-fluorophenyl]methyl}-1H-pyrazole-4-carboxamide] the IC50 (Btk; [1]) was 49 nM, the IC50 (TEC) was 8590 nM and the TEC/Btk (TEC) was 175. It also gave an IC50 (panel of kinases) of 6530 nM.
For CN(C)C(=O)N1CC[C@@H](Nc2n[nH]c3nccc(-c4ccc(CNC(=O)c5nc(C(C)(C)C)no5)c(F)c4)c23)C1 [Example 120, 3-tert-butyl-N-{[4-(3-{[(3R)-1-(dimethylcarbmoyl)pyrrolidin-3-yl]amino}-1H-pyrazolo[3,4-b]pyridin-4-yl)-2-fluorophenyl]methyl}-1,2,4-oxadiazole-5-carboxamide], the IC50 (Btk; [2]) was less than 10 nM, the IC50 (Btk; [1]) was 7.38 nM and the IC50 (TEC) was 7120 nM. For the same molecule, the TEC/Btk (TEC) was 965 and the IC50 (panel of kinases) was 5220 nM.
For CC(C)(C)c1nc(C(=O)NC2(c3ccc(-c4ccnc5[nH]nc(N[C@@H]6CCCNC6)c45)cc3F)CC2)no1 [Example 121, 5-tert-butyl-N-{1-[2-fluoro-4-(3-{[(3R)-piperidin-3-yl]amino}-1H-pyrazolo[3,4-b]pyridin-4-yl)phenyl]cyclopropyl}-1,2,4-oxadiazole-3-carboxamide], the IC50 (Btk; [1]) was 210 nM, the IC50 (TEC) was greater than 10000 nM and the TEC/Btk (TEC) was greater than 100. For the same molecule, the IC50 (panel of kinases) was greater than 10000 nM.
Molecule CC(C)(C)c1nc(C(=O)NC(C)(C)c2ccc(-c3ccnc4[nH]nc(N[C@@H]5CCNC5)c34)cc2)no1 [Example 122, 5-tert-butyl-N-{2-[4-(3-{[(3R)-pyrrolidin-3-yl]amino}-1H-pyraozlo[3,4-b]pyridin-4-yl)phenyl]propan-2-yl}-1,2,4-oxadiazole-3-carboxamide] has an IC50 (Btk; [1]) greater than 10000 nM, an IC50 (TEC) greater than 10000 nM and an IC50 (panel of kinases) greater than 10000 nM.
With CC(C)(C)c1nc(NC(=O)Cc2ccc(-c3ccnc4[nH]nc(N[C@@H]5CCNC5)c34)cc2F)no1 [Example 123, N-(5-tert-butyl-1,2,4-oxadiazol-3-yl)-2-[2-fluoro-4-(3-{[(3R)-pyrrolidin-3-yl]amino}-1H-pyrazolo[3,4-b]pyridin-4-yl)phenyl]acetamide] the IC50 (Btk; [1]) was greater than 10000 nM, the IC50 (TEC) was greater than 10000 nM and the IC50 (panel of kinases) was greater than 10000 nM.
